Experimental data reported in article PMC12538432 (The Journal of Biological Chemistry, 2025).

Tests used:
WT CYP3A4 = biological target: T1, WT CYP3A4 (Homo sapiens, UniProt P08684); experiment: Equilibrium spectral binding titration of WT CYP3A4; conditions: for Spectral ligand type: WT CYP3A4, Soret band shift; for Spectral changes / low-to-high spin transition induced: WT CYP3A4, saturating ligand
T1 construct: made in house
Experimental: (§1) Fitting was performed using SigmaPlot software (Grafiti LLC).

CYP3A4 R212A = biological target: T2, CYP3A4 R212A (Homo sapiens, UniProt P08684, R212A); experiment: Equilibrium spectral binding titration of CYP3A4 R212A mutant
T2 construct: made in house
T2 sequence (P08684 with tags, fused parts or gaps R212A): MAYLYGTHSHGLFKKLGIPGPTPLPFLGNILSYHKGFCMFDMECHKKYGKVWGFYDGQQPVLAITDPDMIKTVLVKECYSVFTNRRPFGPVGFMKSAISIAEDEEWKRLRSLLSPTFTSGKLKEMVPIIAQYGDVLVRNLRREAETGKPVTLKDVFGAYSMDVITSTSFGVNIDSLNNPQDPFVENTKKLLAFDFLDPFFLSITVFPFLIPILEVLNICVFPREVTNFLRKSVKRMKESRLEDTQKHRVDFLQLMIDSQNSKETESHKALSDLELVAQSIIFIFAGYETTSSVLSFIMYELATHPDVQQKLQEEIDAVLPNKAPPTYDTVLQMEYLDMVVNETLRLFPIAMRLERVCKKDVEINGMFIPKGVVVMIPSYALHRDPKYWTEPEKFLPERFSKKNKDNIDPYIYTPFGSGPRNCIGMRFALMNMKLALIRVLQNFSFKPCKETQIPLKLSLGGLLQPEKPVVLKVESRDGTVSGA
Experimental: as §1

CYP3A4 S119A = CYP3A4 S119A (Homo sapiens, UniProt P08684, S119A); experiment: biochemical
Sequence of CYP3A4 S119A (P08684 with tags, fused parts or gaps S119A): as the sequence (P08684 with tags, fused parts or gaps R212A) above, with S99A, A192R counted along it
Experimental: Equilibrium titrations of CYP3A4 were conducted in a Cary 300 spectrophotometer at an ambient temperature in 0.1 M phosphate, pH 7.4, containing 20% glycerol and 1 mM dithiothreitol (buffer A). […] Spectral dissociation constants (Kd) were determined from fittings to the plots of the maximal absorbance change (peak-to-trough separations in the difference spectra; ΔA) versus ligand concentration. Fitting was performed using SigmaPlot software (Grafiti LLC). Equation used for one-site ligand binding: Y=X/(Kd+X) where Y represents the fraction of the occupied site, X is the total ligand concentration, and Kd is the equilibrium dissociation constant. Equation used for two-site ligand binding: Y=(Amax1·X/(Kd1+X))+(Amax2·X/(Kd2+X)) where Y is total specific binding, X is the total ligand concentration, Amax1 and Amax2 are maximum absorbance changes due to specific binding to the high- and low-affinity sites, and Kd1 and Kd2 are the dissociation constants for the high- and low-affinity sites, respectively.

[1] = upon intravenous and immediate-release oral administration ref 32; cited from earlier work
CYP3A4 (wild type) = biological target: T3, CYP3A4 (wild type) (Homo sapiens, UniProt P08684); experiment: Equilibrium spectral binding titration of WT CYP3A4; conditions: human, recombinant Δ3-22 truncated wild-type CYP3A4 protein, pH 7.4; WT CYP3A4, second of two binding sites; read-out: Kd2 (two-site binding fitting)
T3 construct: made in house
T3 sequence (P08684 with tags, fused parts or gaps): as the sequence (P08684 with tags, fused parts or gaps R212A) above, with A192R counted along it
Experimental: as §1

T1 sequence (P08684 with tags, fused parts or gaps): as the sequence (P08684 with tags, fused parts or gaps R212A) above, with A192R counted along it

Structure (SMILES)	Kd (WT CYP3A4) [nM]	Spectral ligand type (WT CYP3A4)	Spectral changes / low-to-high spin transition induced (WT CYP3A4)	Kd (CYP3A4 R212A) [nM]	Kd (CYP3A4 S119A) [nM]	half-life [1] [h]	Kd (CYP3A4 (wild type)) [nM]	Observed absorbance change during association to the high-affinity site (WT CYP3A4; WT CYP3A4, share of total absorbance change) [%]	Spectral changes / low-to-high spin transition induced (WT CYP3A4; listed as cannabinol)	Spectral ligand type (WT CYP3A4; listed as cannabidiol)
CCCCCc1cc(O)c2c(c1)OC(C)(C)[C@@H]1CCC(C)=C[C@@H]21 [THC, (−)-trans-Δ^9-tetrahydrocannabinol]	1900	type I ligand	nearly complete low-to-high spin transition	2800 ± 300	3000 ± 300	–	–	–	–	–
NC(=O)C(c1ccccc1)(c1ccccc1)[C@@H]1CCN(CCc2ccc3c(c2)CCO3)C1 [darifenacin]	–	type I ligand	–	–	–	3 to 4	712000	~70	–	–
CCCCCc1cc(O)c2c(c1)OC(C)(C)c1ccc(C)cc1-2 [CBN, cannabinol]	–	–	only minor spectral changes	–	–	–	–	–	only negligible spectral changes	–
C=C(C)[C@@H]1CCC(C)=C[C@H]1c1c(O)cc(CCCCC)cc1O [CBD, cannabidiol]	–	type I spectral changes	nearly complete high-spin transition	–	–	–	–	–	–	type I ligands
